In one series the test system is MCF-7. Kind of series: Cytotoxicity assay (SRB), MCF-7. It counts as cell-based. The settings on record: Homo sapiens, MCF7, 72 h, MCF-7 cells, SRB, three days; read-out: In Vitro Cellular Activity IC50 MCF-7. Put shortly: (§1)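 Seeding: BT474 12000, HCT-116 4000, LoVo 6000, MCF-7 6000 cells/well; overnight attachment, 37 °C, 7% CO2. Drug exposure 3 d (BT474 6 d), RPMI 1640 + 5% FBS. Readout: TCA fix, 0.4% SRB, Tris solubilisation, A540.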

The target in another series is T1, cyclin D1/cdk 4 enzyme (Homo sapiens, UniProt P11802).
T1 construct: made in house; host or cells: Sf9 insect cells, recombinant baculovirus
T1 sequence (P11802 whole entry, species assumed): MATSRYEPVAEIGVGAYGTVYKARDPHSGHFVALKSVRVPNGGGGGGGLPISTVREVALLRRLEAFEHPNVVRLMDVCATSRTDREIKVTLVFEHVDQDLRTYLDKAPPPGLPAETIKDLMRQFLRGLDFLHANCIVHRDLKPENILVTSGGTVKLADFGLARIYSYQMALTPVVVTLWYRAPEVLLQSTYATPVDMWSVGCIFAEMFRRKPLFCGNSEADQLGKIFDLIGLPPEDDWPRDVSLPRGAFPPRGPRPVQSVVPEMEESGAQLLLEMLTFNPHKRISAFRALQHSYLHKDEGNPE
T1 sequence (P24385 whole entry partner, species assumed): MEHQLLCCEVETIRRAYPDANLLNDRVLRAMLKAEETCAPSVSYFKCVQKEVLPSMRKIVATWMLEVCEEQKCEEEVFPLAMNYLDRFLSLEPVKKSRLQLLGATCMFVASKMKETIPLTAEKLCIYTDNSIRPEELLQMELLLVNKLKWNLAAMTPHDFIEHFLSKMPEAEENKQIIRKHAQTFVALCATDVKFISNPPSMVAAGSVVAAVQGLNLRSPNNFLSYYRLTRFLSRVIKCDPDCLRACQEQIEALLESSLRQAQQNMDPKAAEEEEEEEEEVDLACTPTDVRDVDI
Kind of series: CDK4 ELISA kinase assay (phospho-Rb ser 795 detection). It is filed as biochemical. The note with it: In Vitro Enzyme Assays, 200 μM ATP, read-out: CDK4 IC50. Put shortly: (§2)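 ELISA format: plate-bound GST-Rb, 200 μM ATP, Sf9 cyclin/CDK enzyme, 1 h at 30° C; then anti-pRb Ser795 primary overnight at 4° C, HRP secondary, TMB. IC50 after no-substrate background subtraction.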
(In general: In an ELISA, binding on a coated surface is turned into a signal by an enzyme label.)

The next series relates to BT474. Kind of series: Cytotoxicity assay (SRB), BT474. It is filed as cell-based. The note with it: Homo sapiens, BT-474, 144 h, BT474 cells, SRB, 6 days; read-out: In Vitro Cellular Activity IC50 BT474. Summed up:
as §1

The next series addresses T2, cyclin E/CDK2 enzyme (Homo sapiens, UniProt P24941).
T2 construct: made in house; host or cells: Sf9 insect cells, recombinant baculovirus
Kind of series: CDK2 ELISA kinase assay (phospho-Rb ser 795 detection). The settings on record: In Vitro Enzyme Assays, read-out: CDK2 IC50. It is filed as biochemical. Put shortly:
as §2

In the next series the test system is LoVo. Kind of series: Cytotoxicity assay (SRB), LoVo. The settings on record: Homo sapiens, LoVo, 72 h, LoVo cells, SRB, three days; read-out: In Vitro Cellular Activity IC50 LOVO. It is filed as cell-based. Summed up:
as §1

The next series concerns the target T3, cyclin B/CDK1 enzyme (Homo sapiens, UniProt P06493).
T3 construct: purchased New England BioLabs; host or cells: Sf9 insect cells, recombinant baculovirus
Kind of series: CDK1 ELISA kinase assay (phospho-Rb ser 795 detection). It is filed as biochemical. The settings on record: In Vitro Enzyme Assays, read-out: CDK1 IC50. Summed up:
as §2

The test system of another series is HCT-116. Kind of series: Cytotoxicity assay (SRB), HCT-116. It counts as cell-based. The note with it: Homo sapiens, HCT-116, 72 h, HCT116 cells, SRB, three days; read-out: In Vitro Cellular Activity IC50 HCT116. Summed up: as §1

T3 sequence (P06493 whole entry): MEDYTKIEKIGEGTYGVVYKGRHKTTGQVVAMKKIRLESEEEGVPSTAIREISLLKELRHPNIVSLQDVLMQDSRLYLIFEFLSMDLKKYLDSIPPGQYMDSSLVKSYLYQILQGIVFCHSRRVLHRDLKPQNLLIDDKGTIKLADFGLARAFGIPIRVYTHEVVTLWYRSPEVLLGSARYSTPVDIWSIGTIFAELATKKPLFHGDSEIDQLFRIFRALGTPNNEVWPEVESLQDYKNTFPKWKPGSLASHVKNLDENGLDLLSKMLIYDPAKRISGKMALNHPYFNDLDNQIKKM
T3 sequence (P14635 whole entry partner): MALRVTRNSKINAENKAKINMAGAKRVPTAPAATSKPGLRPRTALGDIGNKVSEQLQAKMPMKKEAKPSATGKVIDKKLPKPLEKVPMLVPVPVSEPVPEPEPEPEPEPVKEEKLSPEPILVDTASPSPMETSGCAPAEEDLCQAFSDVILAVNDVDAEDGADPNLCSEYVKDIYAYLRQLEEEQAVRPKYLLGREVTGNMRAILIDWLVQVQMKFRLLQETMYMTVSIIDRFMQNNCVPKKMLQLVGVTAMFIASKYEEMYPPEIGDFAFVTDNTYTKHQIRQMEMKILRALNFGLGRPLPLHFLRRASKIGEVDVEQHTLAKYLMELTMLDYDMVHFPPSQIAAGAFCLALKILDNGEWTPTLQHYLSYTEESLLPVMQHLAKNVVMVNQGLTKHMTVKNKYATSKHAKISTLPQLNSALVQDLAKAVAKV

One may read the IC50 as the concentration needed to halve the response being measured. By melting point is commonly meant the temperature of the solid-liquid transition. With `CC(=O)Nc1ccc(CN/C=C2\C(=O)NC(=O)c3ccc(I)cc32)cc1OC(C)=O` [Example 146, 2-(Acetylamino)-5-({[(Z)-(6-iodo-1,3-dioxo-2,3-dihydroisoquinolin-4(1H)-′ylidene)methyl]amino}methyl)phenyl acetate], the melting point lay within 264 to 265 °C. Also, the IC50 with MCF-7 turned out to be 2.7 µM. At cyclin D1/cdk 4 enzyme, the concentration for half-maximal inhibition (IC50) is 0.1 µM. Also, the IC50 with BT474 turned out to be 0.49 µM. Besides, on cyclin E/CDK2 enzyme, the IC50 worked out at 8.6 µM. For the same compound, in the series on LoVo, the concentration for half-maximal inhibition (IC50) was found to be 0.86 µM. The 50% inhibitory concentration (IC50) on cyclin B/CDK1 enzyme is over 50 µM. Moreover, the IC50 in the series on HCT-116 came to 0.66 µM.
As to `O=C1NC(=O)c2ccc(-c3ccsc3)cc2C1=NNc1ccc(CN2CCCCC2)cc1` [Example 152, 4-[(4-Piperidin-1-ylmethyl-phenyl)-hydrazono]-6-thiophen-3-yl-4H-isoquinoline-1,3-dione], the melting point is 164 to 168 °C (dec.). In addition, in the series on MCF-7, the IC50 stood at 6.2 µM. For the same compound, on cyclin D1/cdk 4 enzyme, the IC50 stood at 0.06 µM. Besides, the IC50 with BT474 was determined as 3.4 µM. The IC50 at cyclin E/CDK2 enzyme was over 50 µM. In addition, in the series with LoVo, the IC50 was determined as 6.6 µM. In addition, on cyclin B/CDK1 enzyme, the IC50 amounted to 36.3 µM. Also, the IC50 in the series on HCT-116 was found to be 2.8 µM.
Consider `O=C1NC(=O)c2ccc(-c3ccoc3)cc2C1=NNc1ccc(CN2CCCCC2)cc1` [Example 156, 6-Furan-3-yl-4-[(4-piperidin-1-ylmethyl-phenyl)-hydrazono]-4H-isoquinoline-1,3-dione], for which the melting point was 223 to 225 °C (dec.). Further, in the series with MCF-7, the half-maximal inhibitory concentration (IC50) worked out at 1.5 µM. Also, on cyclin D1/cdk 4 enzyme, the IC50 is 0.04 µM. The half-inhibitory concentration (IC50) with BT474 came to 2.6 µM. Besides, the IC50 at cyclin E/CDK2 enzyme is over 50 µM. Also, the IC50 with LoVo was found to be 6.4 µM. Moreover, the IC50 on cyclin B/CDK1 enzyme is over 50 µM. For the same compound, in the series on HCT-116, the 50% inhibitory concentration (IC50) turned out to be 2.5 µM.
`COCCOc1ccc(CN/C=C2\C(=O)NC(=O)c3ccc(Br)cc32)cc1O` [Example 158] came in with a melting point of 179 to 180 °C. The IC50 in the series on MCF-7 is over 50 µM. Besides, the IC50 on cyclin D1/cdk 4 enzyme turned out to be 0.04 µM. Besides, in the series with BT474, the IC50 was found to be 28 µM. Further, at cyclin E/CDK2 enzyme, the half-maximal inhibitory concentration (IC50) was over 50 µM. The IC50 with LoVo came out at 30 µM. In addition, at cyclin B/CDK1 enzyme, the IC50 is over 50 µM. Also, the IC50 with HCT-116 was determined as 32 µM.
For the compound `COc1ccc(CNC=C2C(=O)NCc3ccccc32)cc1O` [Example 160, 4-[(3-Hydroxy-4-methoxy-benzylamino)-methylene]-1,4-dihydro-2H-isoquinoline-3-one], the melting point is 177 to 179 °C (dec.). Further, in the series with MCF-7, the IC50 was determined as 30 µM. Also, the concentration for half-maximal inhibition (IC50) on cyclin D1/cdk 4 enzyme came out at 20.4 µM. The IC50 in the series on BT474 was over 50 µM. At cyclin E/CDK2 enzyme, the IC50 came to 31 µM. Further, the half-maximal inhibitory concentration (IC50) in the series on LoVo was found to be 43 µM. For the same compound, the 50% inhibitory concentration (IC50) at cyclin B/CDK1 enzyme was over 50 µM. Besides, the IC50 in the series on HCT-116 was over 50 µM.
Turning to `O=C1NCc2ccccc2C1=CNc1ccc(CN2CCCCC2)cc1` [Example 162, 4-[(4-Piperidin-1-ylmethyl-phenylamino)-methylene]-1,4-dihydro-2H-isoquinolin-3-one], the melting point was 188 to 189 °C (dec.). Besides, the 50% inhibitory concentration (IC50) in the series on MCF-7 is 3.9 µM. For the same compound, on cyclin D1/cdk 4 enzyme, the IC50 was 18.6 µM. Moreover, the IC50 with BT474 was 23 µM. Also, on cyclin E/CDK2 enzyme, the IC50 is over 50 µM. Besides, the IC50 in the series with LoVo turned out to be 9.2 µM. Besides, the half-maximal inhibitory concentration (IC50) on cyclin B/CDK1 enzyme was over 50 µM. Further, the IC50 in the series on HCT-116 is 4.4 µM.
The compound `O=C1NC(=O)c2ccc(I)cc2/C1=C/NCc1ccc(Cl)c(O)c1` [Example 165, (4Z)-4-{[(4-Chloro-3-hydroxybenzyl)amino]methylene}-6-iodoisoquinoline-′1,3(2H,4H)-dione] yielded a melting point of 324 to 325 °C. For the same compound, the IC50 with MCF-7 was over 50 µM. Also, the IC50 at cyclin D1/cdk 4 enzyme was found to be 0.2 µM. In the series with BT474, the half-inhibitory concentration (IC50) was over 50 µM. In addition, on cyclin E/CDK2 enzyme, the 50% inhibitory concentration (IC50) worked out at 18.9 µM. Moreover, the half-inhibitory concentration (IC50) with LoVo was over 50 µM. Moreover, on cyclin B/CDK1 enzyme, the half-inhibitory concentration (IC50) is over 50 µM. Besides, the IC50 in the series with HCT-116 is 23 µM.

(Values after US7713994B2 (Wyeth LLC, priority 2005, dated 2010).)
